Among the data in patent publication US12122778B2, “Activating pyruvate kinase R” (Novo Nordisk Health Care AG, priority 2018, dated 2024) are activation, AC50 and Emax values, retold here.

The target in the assay is PKR(wt) (Homo sapiens, UniProt P30613). The assay can be described thus: Luminescence Biochemical Assay (Kinase Glo Plus), wild type PKR. As to conditions: without FBP; for activation at 1.54 µM: 1.54 μM compound, read-out: AC50 LUM KGP woFBP % Fold@1.54 μM mean; for AC50: read-out: AC50 LUM KGP woFBP AC50 μM gmean; for Emax: read-out: AC50 LUM KGP woFBP MAX % FOLD mean. As for the experimental part: In some embodiments, a PKR Activating Compound can have: (1) an AC50 value of less than 0.1 μM (e.g., compounds with AC50 values of “+++” in Table 13), 0.1-1.0 μM (e.g., compounds with AC50 values of “++” in Table 13), or 1.01-40 μM (e.g., compounds with AC50 values of “+” in Table 13); (2) a MAX % Fold of 75%-250%, 250-500%, or 75%-500%; and/or (3) a % Fold@1.54 μM of 75%-250%, 250-500%, or 75%-500%. In some embodiments, a PKR Activating Compound has (1) an AC50 value of less than 1.0 μM; (2) a MAX % Fold of 75%-500%; and/or (3) a % Fold@1.54 μM of 75%-500%.
The phosphorylation of Adenosine-5′-diphosphate (ADP) by various mutants of PKR was determined by the Kinase Glo Plus Assay (Promega) in the presence or absence of FBP [D-Fructose-1,6-diphosphate; BOC Sciences, CAS: 81028-91-3] as follows. Unless otherwise indicated, all reagents were purchased from Sigma-Aldrich. All reagents were prepared in buffer containing 50 mM Tris-HCl, 100 mM KCl, 5 mM MgCl2, and 0.01% Triton X100, 0.03% BSA, and 1 mM DTT. Enzyme and PEP [Phospho(enol) pyruvic acid] were added at 2× to all wells of an assay-ready plate containing serial dilutions of test compounds or DMSO vehicle. Final enzyme concentrations for PKR(wt), PKR(R510Q), and PKR(G332S) were 0.8 nM, 0.8 nM, and 10 nM respectively. Final PEP concentration was 100 μM. The Enzyme/PEP mixture was incubated with compounds for 30 minutes at RT before the assay was initiated with the addition of 2×ADP [Adenosine-5′-diphosphate] and KinaseGloPlus. Final concentration of ADP was 100 μM. […] For assays containing FBP, that reagent is added at 30 μM upon reaction initiation. Reactions were allowed to progress for 45 minutes at RT until luminescence was recorded by the BMG PHERAstar FS Multilabel Reader. All compounds were tested in triplicate at concentrations ranging from 42.5 μM to 2.2 nM in 0.83% DMSO.
Luminescence values were converted to % Fold increase by normalizing to the average of the DMSO control and multiplying by 100. Max, min, slope and AC50 were determined by the standard four parameter fit algorithm of ActivityBase XE Runner. Compounds were evaluated with three parameters—AC50, MAX % Fold, and % Fold@1.54 μM (FIG. 1). The AC50 value for a compound is the concentration (μM) corresponding to the midway between the maximum and minimum values of the four parameter logistic curve fit (i.e., at which the % fold increase along the four parameter logistic curve fit is halfway between MAX % Fold and MIN % Fold (% Fold Midpoint)), MAX % Fold is the highest fold increase observed at any concentration of compound, and % Fold@1.54 μM is the fold increase at a compound concentration of 1.54 μM. The parameter % Fold@1.54 μM was selected to capture elements of both the AC50 and MAX % Fold and to provide a ranking based on both potency and effect. The compound concentration of 1.54 μM was chosen as one that can optimally differentiate the set of compounds based on the range of activities observed.
As set forth in Table 13 below, AC50 values (columns A, D, G) are defined as follows: ≤0.1 μM (+++); >0.1 μM and ≤1.0 μM (++); >1.0 μM and ≤40 μM (+); >40 μM (0). Max % FOLD values (columns B, E, H) are defined as follows: ≤75% (+); >75% and ≤250% (++); >250% and ≤500% (+++). % Fold@1.54 μM values (columns C, F, J) are defined as follows: ≤75% (+); >75% and ≤250% (++); >250% and ≤50000 (+++).
(In Kinase-Glo more light means more ATP remaining.)

PKR(wt), sequence (P30613 whole entry): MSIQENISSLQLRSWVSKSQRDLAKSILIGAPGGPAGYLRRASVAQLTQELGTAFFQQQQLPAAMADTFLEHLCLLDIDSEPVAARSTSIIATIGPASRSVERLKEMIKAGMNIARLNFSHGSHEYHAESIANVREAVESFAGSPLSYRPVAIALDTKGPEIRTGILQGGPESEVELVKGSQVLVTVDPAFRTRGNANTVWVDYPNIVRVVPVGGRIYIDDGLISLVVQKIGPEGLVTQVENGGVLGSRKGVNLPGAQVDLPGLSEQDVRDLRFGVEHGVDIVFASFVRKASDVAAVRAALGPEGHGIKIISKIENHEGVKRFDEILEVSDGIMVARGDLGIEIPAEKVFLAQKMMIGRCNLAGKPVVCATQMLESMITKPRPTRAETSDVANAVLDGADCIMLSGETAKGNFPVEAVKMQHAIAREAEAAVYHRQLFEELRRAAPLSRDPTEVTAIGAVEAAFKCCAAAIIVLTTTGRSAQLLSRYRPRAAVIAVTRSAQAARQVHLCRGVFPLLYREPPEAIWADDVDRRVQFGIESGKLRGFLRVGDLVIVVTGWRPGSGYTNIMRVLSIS

With `NCC1(C(=O)N2CC3=C(C2)CN(S(=O)(=O)c2ccc4occc4c2)C3)CC1` [Example 2-1, (1-(Aminomethyl)cyclopropyl)(5-(benzofuran-5-ylsulfonyl)-3,4,5,6-tetrahydropyrrolo[3,4-c]pyrrol-2(1H)-yl)methanone], the activation at 1.54 µM is 75 to 250%; the concentration at half-maximal activity (AC50) (as a rule, the midpoint of the concentration-response curve, whichever way the signal moves) is 1 to 40 µM; the Emax lay within 75 to 250%.

As to `O=C(NC1CCOC1)N1CC2=C(C1)CN(S(=O)(=O)c1ccc3occc3c1)C2` (stereo not drawn) [Example 3-2, 5-(Benzofuran-5-ylsulfonyl)-N-(tetrahydrofuran-3-yl)-3,4,5,6-tetrahydropyrrolo[3,4-c]pyrrole-2(1H)-carboxamide], the activation at 1.54 µM lay in the range of 75 to 250%, the AC50 was in the range of 0.1 to 1 µM and the Emax lay within 250 to 500%.

In the case of `Cc1cc(C(C)NC(=O)N2CC3=C(C2)CN(S(=O)(=O)c2ccc(OC(F)F)cc2)C3)c(C)o1` (stereo not drawn) [Example 21-4, 5-[4-(Difluoromethoxy)benzenesulfonyl]-N-[1-(2,5-dimethylfuran-3-yl)ethyl]-1H,2H,3H,4H,5H,6H-pyrrolo[3,4-c]pyrrole-2-carboxamide], the activation at 1.54 µM fell in the range of 75 to 250%, the AC50 was in the range of 1 to 40 µM and the Emax was in the range of 250 to 500%.

As for `Cc1cc(C(=O)N2CC3=C(C2)CN(S(=O)(=O)c2ccc4occc4c2)C3)nn1C` [Example 18-84, 3-[5-(1-Benzofuran-5-sulfonyl)-1H,2H,3H,4H,5H,6H-pyrrolo[3,4-c]pyrrole-2-carbonyl]-1,5-dimethyl-1H-pyrazole], the activation at 1.54 µM fell in the range of 75 to 250%, the half-maximal activity concentration (AC50) lay within 1 to 40 µM and the Emax is 75 to 250%.

With `O=C(c1ccc(OCC(F)(F)F)nc1)N1CC2=C(C1)CN(S(=O)(=O)c1ccc3occc3c1)C2` [Example 18-81, 5-[5-(1-Benzofuran-5-sulfonyl)-1H,2H,3H,4H,5H,6H-pyrrolo[3,4-c]pyrrole-2-carbonyl]-2-(2,2,2-trifluoroethoxy)pyridine], the activation at 1.54 µM was in the range of 250 to 50000%, the AC50 was in the range of 0.1 to 1 µM and the Emax is 250 to 500%.

Take `Cc1cnc(C(=O)N2CC3=C(C2)CN(S(=O)(=O)c2ccc4occc4c2)C3)cn1` [Example 18-82, 2-[5-(1-Benzofuran-5-sulfonyl)-1H,2H,3H,4H,5H,6H-pyrrolo[3,4-c]pyrrole-2-carbonyl]-5-methylpyrazine]: the activation at 1.54 µM was 75 to 250%, the AC50 is 1 to 40 µM and the Emax is 75 to 250%.

In the case of `COC[C@@H](C)NC(=O)N1CC2=C(C1)CN(S(=O)(=O)c1ccc3occc3c1)C2` [Example 3-3, (R)-5-(benzofuran-5-ylsulfonyl)-N-(1-methoxypropan-2-yl)-3,4,5,6-tetrahydropyrrolo[3,4-c]pyrrole-2(1H)-carboxamide], the activation at 1.54 µM is 75 to 250%, the AC50 fell in the range of 1 to 40 µM and the Emax fell in the range of 75 to 250%.

As for `O=C(NCc1ccco1)N1CC2=C(C1)CN(S(=O)(=O)c1ccc3ncsc3c1)C2` [Example 21-1, 5-(Benzo[d]thiazol-6-ylsulfonyl)-N-(furan-2-ylmethyl)-3,4,5,6-tetrahydropyrrolo[3,4-c]pyrrole-2(1H)-carboxamide], the activation at 1.54 µM was 250 to 50000%, the half-maximal activity concentration (AC50) was at most 0.1 µM and the Emax is 250 to 500%.

`O=C(NCC1CCCO1)N1CC2=C(C1)CN(S(=O)(=O)c1ccc3occc3c1)C2` (stereo not drawn) [Example 3-1, 5-(Benzofuran-5-ylsulfonyl)-N-((tetrahydrofuran-2-yl)methyl)-3,4,5,6-tetrahydropyrrolo[3,4-c]pyrrole-2(1H)-carboxamide]: the activation at 1.54 µM was 75 to 250%, the AC50 is 0.1 to 1 µM and the Emax was in the range of 75 to 250%.

As for `O=C(OCc1cccnc1)N1CC2=C(C1)CN(S(=O)(=O)c1ccc3occc3c1)C2` [Example 22-7, Pyridin-3-ylmethyl 5-(1-benzofuran-5-sulfonyl)-1H,2H,3H,4H,5H,6H-pyrrolo[3,4-c]pyrrole-2-carboxylate], the activation at 1.54 µM was in the range of 250 to 50000%, the AC50 fell in the range of 0.1 to 1 µM and the Emax was 250 to 500%.
